Assay results as given in US6737383B1, “Herbicidal oxadiazolidines” (priority 1999, dated 2004).

Key:
blackgrass = assay: Test B pre/postemergence blackgrass; type: in vivo, Alopecurus myosuroides
Procedure, shortened: (§1)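 Response is a visual 0-to-10 score relative to untreated plants, where 0 means no effect and 10 means complete control, taken twelve to sixteen days after application. Treatments went onto soil at planting and onto foliage of 1- to 4-leaf plants, using a surfactant-containing non-phytotoxic solvent.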

surinam grass = assay: Test B pre/postemergence surinam grass; type: in vivo, Brachiaria decumbens
Procedure, shortened: as §1

cocklebur = assay: Test B pre/postemergence cocklebur; type: in vivo, Xanthium strumarium
Procedure, shortened: as §1

corn = assay: Test B pre/postemergence corn; type: in vivo, Zea mays
Procedure, shortened: as §1

crabgrass = assay: Test B pre/postemergence crabgrass; type: in vivo, Digitaria sanguinalis
Procedure, shortened: as §1

giant foxtail = assay: Test B pre/postemergence giant foxtail; type: in vivo, Setaria faberii
Procedure, shortened: as §1

morningglory = assay: Test B pre/postemergence morningglory; type: in vivo, Ipomoea hederacea
Procedure, shortened: as §1

pigweed = assay: Test B pre/postemergence pigweed; type: in vivo, Amaranthus retroflexus
Procedure, shortened: as §1

rape = assay: Test B pre/postemergence rape; type: in vivo, Brassica napus
Procedure, shortened: as §1

soybean = assay: Test B pre/postemergence soybean; type: in vivo, Glycine max
Procedure, shortened: as §1

sugar beet = assay: Test B pre/postemergence sugar beet; type: in vivo, Beta vulgaris
Procedure, shortened: as §1

velvetleaf = assay: Test B pre/postemergence velvetleaf; type: in vivo, Abutilon theophrasti
Procedure, shortened: as §1

wheat = assay: Test B pre/postemergence wheat; type: in vivo, Triticum aestivum
Procedure, shortened: as §1

wild oat = assay: Test B pre/postemergence wild oat; type: in vivo, Avena fatua
Procedure, shortened: as §1

purple nutsedge = assay: Test B pre/postemergence purple nutsedge; type: in vivo, Cyperus rotundus
Procedure, shortened: as §1

rice = assay: Test B flood test rice; type: in vivo, Oryza sativa
Procedure, shortened: (§2)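 Read-out is a visual response score from 0 (no effect) to 10 (complete control), assigned by comparison with untreated controls. Treatment was applied at the 2-leaf stage, and plants stayed in the greenhouse for twelve to sixteen days before scoring.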

smallflower flatsedge = assay: Test B flood test smallflower flatsedge; type: in vivo, Cyperus difformis
Procedure, shortened: as §2

duck salad = assay: Test B flood test duck salad; type: in vivo, Heteranthera limosa; conditions: for Plant response rating, Ducksalad: scale 0 to 10, 0 is no effect, 10 is complete control; for Ducksalad plant response rating: scale of 0 to 10 where 0 is no effect and 10 is complete control
Procedure, shortened: as §2

bamyardgrass = assay: Test B flood test barnyardgrass; type: in vivo, Echinochloa crus-galli; conditions: for Plant response rating, Barnyardgrass: scale 0 to 10, 0 is no effect, 10 is complete control; for Barnyardgrass plant response rating: scale of 0 to 10 where 0 is no effect and 10 is complete control
Procedure, shortened: as §2

[1] = Postemergence, Rate 125 g/ha, scale 0 to 10, 0 is no effect, 10 is complete control
[2] = Postemergence, Rate 250 g/ha, scale 0 to 10, 0 is no effect, 10 is complete control
[3] = Postemergence, Rate 500 g/ha, scale of 0 to 10 where 0 is no effect and 10 is complete control
[4] = Preemergence, Rate 62 g/ha, scale 0 to 10 (0 no effect, 10 complete control)
[5] = Preemergence, Rate 125 g/ha, scale of 0 to 10 where 0 is no effect and 10 is complete control
[6] = Preemergence, Rate 250 g/ha, scale of 0 to 10 where 0 is no effect and 10 is complete control
[7] = Preemergence, Rate 500 g/ha, scale 0 to 10, 0 is no effect, 10 is complete control
[8] = Rate 62 g/ha, Postemergence, scale of 0 to 10 where 0 is no effect and 10 is complete control
[9] = Preemergence, Rate 250 g/ha, scale 0 to 10, 0 is no effect, 10 is complete control
[10] = Postemergence section (flood test species), Rate 500 g/ha, scale of 0 to 10 where 0 is no effect and 10 is complete control
[11] = flood test species, listed under Postemergence, Rate 250 g/ha, scale 0 to 10, 0 is no effect, 10 is complete control
[12] = Postemergence (flood test), Rate 125 g/ha
[13] = Postemergence section (flood test species), Rate 500 g/ha
[14] = Rate 62 g/ha, Postemergence (flood test species)
[15] = flood test species, listed under Postemergence, Rate 250 g/ha

For `C=C(C)CCn1c(=O)on(C(=O)N(c2ccccc2)C(C)C)c1=O` [Compound 418], the “Plant response rating, Blackgrass” value (blackgrass; [1]) was 4, the “Plant response rating, Blackgrass” value (blackgrass; [2]) was 4 and the “Blackgrass plant response rating” value (blackgrass; [3]) was 6. For the same molecule, the “Plant response rating, Blackgrass” value (blackgrass; [4]) was 4, the “Plant response rating, Blackgrass” value (blackgrass; [5]) was 4 and the “Blackgrass plant response rating” value (blackgrass; [6]) was 7. The “Blackgrass plant response rating” value (blackgrass; [7]) was 0, the “Blackgrass plant response rating” value (blackgrass; [8]) was 2 and the “Plant response rating, B. signalgrass” value (surinam grass; [1]) was 0. For the same molecule, the “Plant response rating, B. signalgrass” value (surinam grass; [2]) was 0, the “B. signalgrass plant response rating” value (surinam grass; [3]) was 2 and the “Plant response rating, B. signalgrass” value (surinam grass; [4]) was 0. For the same molecule, the “Plant response rating, B. signalgrass” value (surinam grass; [5]) was 3, the “B. signalgrass plant response rating” value (surinam grass; [6]) was 6 and the “B. signalgrass plant response rating” value (surinam grass; Preemergence, Rate 500 g/ha, scale of 0 to 10 where 0 is no effect and 10 is complete control) was 6. For the same molecule, the “B. signalgrass plant response rating” value (surinam grass; [8]) was 0, the “Plant response rating, Cocklebur” value (cocklebur; [1]) was 0 and the “Plant response rating, Cocklebur” value (cocklebur; [2]) was 0. For the same molecule, the “Cocklebur plant response rating” value (cocklebur; [3]) was 0, the “Plant response rating, Cocklebur” value (cocklebur; [4]) was 0 and the “Plant response rating, Cocklebur” value (cocklebur; [5]) was 0. The “Cocklebur plant response rating” value (cocklebur; [9]) was 0, the “Cocklebur plant response rating” value (cocklebur; [7]) was 0 and the “Cocklebur plant response rating” value (cocklebur; [8]) was 0. For the same molecule, the “Plant response rating, Corn” value (corn; [1]) was 0, the “Plant response rating, Corn” value (corn; [2]) was 0 and the “Corn plant response rating” value (corn; [3]) was 0. The “Plant response rating, Corn” value (corn; [4]) was 0, the “Plant response rating, Corn” value (corn; [5]) was 0 and the “Corn plant response rating” value (corn; [9]) was 2. For the same molecule, the “Corn plant response rating” value (corn; [8]) was 0, the “Plant response rating, Crabgrass” value (crabgrass; [1]) was 0 and the “Plant response rating, Crabgrass” value (crabgrass; [2]) was 3. The “Crabgrass plant response rating” value (crabgrass; [3]) was 6, the “Plant response rating, Crabgrass” value (crabgrass; [4]) was 6 and the “Plant response rating, Crabgrass” value (crabgrass; [5]) was 8. For the same molecule, the “Crabgrass plant response rating” value (crabgrass; [9]) was 10, the “Crabgrass plant response rating” value (crabgrass; [7]) was 10 and the “Crabgrass plant response rating” value (crabgrass; [8]) was 0. The “Plant response rating, Giant foxtail” value (giant foxtail; [1]) was 0, the “Plant response rating, Giant foxtail” value (giant foxtail; [2]) was 8 and the “Giant foxtail plant response rating” value (giant foxtail; [3]) was 9. The “Plant response rating, Giant foxtail” value (giant foxtail; [4]) was 7, the “Plant response rating, Giant foxtail” value (giant foxtail; [5]) was 8 and the “Giant foxtail plant response rating” value (giant foxtail; [9]) was 10. For the same molecule, the “Giant foxtail plant response rating” value (giant foxtail; [7]) was 10, the “Giant foxtail plant response rating” value (giant foxtail; [8]) was 0 and the “Plant response rating, Morningglory” value (morningglory; [2]) was 8. For the same molecule, the “Morningglory plant response rating” value (morningglory; [3]) was 10, the “Plant response rating, Morningglory” value (morningglory; [4]) was 0 and the “Plant response rating, Morningglory” value (morningglory; [5]) was 0. For the same molecule, the “Morningglory plant response rating” value (morningglory; [9]) was 0, the “Morningglory plant response rating” value (morningglory; [7]) was 0 and the “Plant response rating, Redroot pigweed” value (pigweed; [2]) was 0. The “Redroot pigweed plant response rating” value (pigweed; [3]) was 0, the “Plant response rating, Redroot pigweed” value (pigweed; [4]) was 2 and the “Plant response rating, Redroot pigweed” value (pigweed; [5]) was 3. The “Redroot pigweed plant response rating” value (pigweed; [9]) was 8, the “Redroot pigweed plant response rating” value (pigweed; [7]) was 8 and the “Plant response rating, Rape” value (rape; [2]) was 0. The “Rape plant response rating” value (rape; [3]) was 0, the “Plant response rating, Rape” value (rape; [4]) was 0 and the “Plant response rating, Rape” value (rape; [5]) was 0. For the same molecule, the “Rape plant response rating” value (rape; [9]) was 0, the “Rape plant response rating” value (rape; [7]) was 9 and the “Plant response rating, Soybean” value (soybean; [2]) was 4. The “Soybean plant response rating” value (soybean; [3]) was 6, the “Plant response rating, Soybean” value (soybean; [4]) was 0 and the “Plant response rating, Soybean” value (soybean; [5]) was 0. The “Soybean plant response rating” value (soybean; [9]) was 0, the “Soybean plant response rating” value (soybean; [7]) was 0 and the “Plant response rating, Sugarbeets” value (sugar beet; [2]) was 0. For the same molecule, the “Sugarbeets plant response rating” value (sugar beet; [3]) was 0, the “Plant response rating, Sugarbeets” value (sugar beet; [4]) was 0 and the “Plant response rating, Sugarbeets” value (sugar beet; [5]) was 2. The “Sugarbeets plant response rating” value (sugar beet; [9]) was 2, the “Sugarbeets plant response rating” value (sugar beet; [7]) was 2 and the “Plant response rating, Velvetleaf” value (velvetleaf; [2]) was 0. For the same molecule, the “Velvetleaf plant response rating” value (velvetleaf; [3]) was 0, the “Plant response rating, Velvetleaf” value (velvetleaf; [4]) was 0 and the “Plant response rating, Velvetleaf” value (velvetleaf; [5]) was 3. For the same molecule, the “Velvetleaf plant response rating” value (velvetleaf; [9]) was 5, the “Velvetleaf plant response rating” value (velvetleaf; [7]) was 6 and the “Wheat plant response rating” value (wheat; [3]) was 0. For the same molecule, the “Plant response rating, Wheat” value (wheat; [4]) was 0, the “Plant response rating, Wheat” value (wheat; [5]) was 0 and the “Wheat plant response rating” value (wheat; [9]) was 0. For the same molecule, the “Wheat plant response rating” value (wheat; [7]) was 2, the “Wild oats plant response rating” value (wild oat; [3]) was 3 and the “Plant response rating, Wild oats” value (wild oat; [4]) was 0. The “Plant response rating, Wild oats” value (wild oat; [5]) was 0, the “Wild oats plant response rating” value (wild oat; [9]) was 0 and the “Wild oats plant response rating” value (wild oat; [7]) was 0. The “Plant response rating, Nutsedge” value (purple nutsedge; [2]) was 0, the “Nutsedge plant response rating” value (purple nutsedge; [3]) was 0 and the “Plant response rating, Nutsedge” value (purple nutsedge; [4]) was 0. The “Plant response rating, Nutsedge” value (purple nutsedge; [5]) was 0, the “Nutsedge plant response rating” value (purple nutsedge; [9]) was 0 and the “Nutsedge plant response rating” value (purple nutsedge; [7]) was 0. The “Rice plant response rating” value (rice; [10]) was 0, the “Plant response rating, Rice” value (rice; [11]) was 0 and the “S. Flatsedge plant response rating” value (smallflower flatsedge; [10]) was 4. The “Plant response rating, S. Flatsedge” value (smallflower flatsedge; [11]) was 4, the “Plant response rating, Ducksalad” value (duck salad; [12]) was 0 and the “Ducksalad plant response rating” value (duck salad; [13]) was 2. For the same molecule, the “Ducksalad plant response rating” value (duck salad; [14]) was 0, the “Plant response rating, Ducksalad” value (duck salad; [15]) was 2 and the “Plant response rating, Barnyardgrass” value (bamyardgrass; [12]) was 0. For the same molecule, the “Barnyardgrass plant response rating” value (bamyardgrass; [13]) was 0, the “Barnyardgrass plant response rating” value (bamyardgrass; [14]) was 0 and the “Plant response rating, Barnyardgrass” value (bamyardgrass; [15]) was 0.
